These results are taken from US12274687B2, “Methods for treating ascites” (Martin Pharmaceuticals, Inc., priority 2021, dated 2025).

Each structure is given as a SMILES string. “Also recorded” adds a separate entry of the source.

For data set [1] the following is noted: administered orally; high rates of metabolism in gut / small intestine and liver; cited from earlier work.
Data set [2] relates to patients with RA. The conditions noted are these: cited from earlier work.
Data set [3] relates to cirrhotic subjects with RA. Put plainly: Open-label, single-arm clinical study of docarpamine on ascites formation (frequency of LVP, volume of ascitic fluid drained). Type of data set: in vivo, human. The protocol: An open-label, single-arm study in which each subject serves as his/her own control is conducted. The study assesses the effect of DCP treatment on ascites formation in cirrhotic subjects with RA, by examining the frequency of LVP and the volume of ascitic fluid drained. All subjects participate in a 90-day open-label treatment period. […] Ascites history (relevant medications, LVP dates, and volume of drained fluid) for the 90 days prior to treatment and the 90 days after treatment are collected and used for comparison with on-treatment frequency and volume. The study population consists of cirrhotic patients between 18 and 70 years of age, inclusive, with refractory ascites, subject to the following inclusion and exclusion criteria. • Patients 18 years to 70 years of age. • Documented cirrhosis of the liver. • Refractory ascites, defined as ascites not manageable with diuretics and diet restriction, managed with periodic large volume therapeutic paracentesis. • Patients must have therapeutic […] 3 days prior to enrollment and a documented minimum of 3 additional therapeutic […] 90 days prior to enrollment, with at least 1 every 30 days. • Outpatient, with expected survival of at least 6 months. • Willing and able to complete an informed consent form.

For data set [4], the system named is RA patients. The following applies: small cohort of RA patients; cited from earlier work.
The mark [5] stands for this setting: high dose 4500 mg per day (1500 mg 3 times per day), 90 days treatment, on average, vs 90 days prior to treatment.

With `NCCc1ccc(O)c(O)c1` [dopamine], the oral bioavailability result in data set [1] is “not orally bioavailable”. For the same compound, in data set [2], the “changes of blood urea nitrogen, creatinine, creatinine clearance, blood pressure, pulse rate, serum sodium, serum aldosterone and GFR” value is reported as “no difference”; the “effective renal plasma flow” value was “Positive effects”.
As for `CCOC(=O)Oc1ccc(CCNC(=O)[C@H](CCSC)NC(C)=O)cc1OC(=O)OCC` [docarpamine], the “effects on LVP, ascites volume and renal markers at low dose” value in data set [3] (750 mg 3 times per day (2250 mg per day), 90 days: effects not observed) was “only in the high dose”. In data set [3] (4500 mg per day group, some patients / others), the “time during which patients do not require LVP” value is “more than one month; also recorded: more than two months”. For the same compound, in data set [3] (4500 mg per day, 90 days), the “other markers of improved renal function” value was “respond positively” and the sodium excretion entry is reported as “Increased”. The “Renin and/or aldosterone levels” value in data set [3] (4500 mg per day, many patients, in some cases to normal) is “reduced”. Also, the “urinary output on treatment” value in data set [3] (4500 mg per day, most patients, from 500-1000 ml before, printed '1500-2000 ml or more') was 1500 to 2000 mL. Besides, in data set [3] (setting [5]), the “frequency of LVP over 90 days” value is given as “reduced by more than half” and the “volume of ascites removed over 90 days” value is recorded as “reduced by more than half”. Moreover, the “frequency and volume of LVP once a patient stops treatment” value in data set [3] (off-treatment follow-up after 90 days at 4500 mg per day) was “greater decreases”. The “persistence of the decrease in LVP after stopping treatment” value in data set [3] (off-treatment follow-up, before beginning to increase again) is recorded as “one or more months”. Besides, in data set [4], the “efficacy in refractory ascites” value is “effective”.
